Where a chain is given by its changes, count along the chain named.
Tests used:
Type in all cases: cell-based
[1] = molecular target: T1, FZD6 (HiBiT-FZD6; FZD6-Nluc) (Homo sapiens, UniProt O60353, P427F); assay: NanoBiT/BRET saturation binding in live cells; details: HBSS, 90 min, 37 °C; cell-surface receptor; upper 7TM site; labelled compound; error SD
T1 construct: full-length receptor; expressed in deltaSMO HEK293A cells; UniProt id given for the homology model
T1 sequence (O60353 19-706 P427F): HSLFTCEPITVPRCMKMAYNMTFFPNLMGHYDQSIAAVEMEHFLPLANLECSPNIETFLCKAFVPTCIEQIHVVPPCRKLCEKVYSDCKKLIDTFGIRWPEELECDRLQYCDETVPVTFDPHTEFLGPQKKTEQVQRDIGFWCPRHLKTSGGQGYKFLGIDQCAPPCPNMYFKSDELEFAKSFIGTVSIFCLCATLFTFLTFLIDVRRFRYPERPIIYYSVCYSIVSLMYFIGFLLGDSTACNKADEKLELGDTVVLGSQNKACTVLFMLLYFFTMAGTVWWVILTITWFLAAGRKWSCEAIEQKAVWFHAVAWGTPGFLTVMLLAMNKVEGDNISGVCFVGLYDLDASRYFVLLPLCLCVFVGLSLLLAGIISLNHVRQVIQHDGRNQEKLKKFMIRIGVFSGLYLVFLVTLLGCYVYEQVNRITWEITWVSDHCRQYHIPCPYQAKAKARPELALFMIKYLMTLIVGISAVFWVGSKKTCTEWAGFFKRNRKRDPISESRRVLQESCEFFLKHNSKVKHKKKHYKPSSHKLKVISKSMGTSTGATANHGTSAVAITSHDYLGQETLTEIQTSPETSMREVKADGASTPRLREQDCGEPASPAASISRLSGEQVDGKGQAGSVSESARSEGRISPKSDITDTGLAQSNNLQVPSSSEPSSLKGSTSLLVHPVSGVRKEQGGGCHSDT

[2] = molecular target: T2, SMO (HiBiT-SMO; SMO-Nluc) (Mus musculus, UniProt P56726); assay: NanoBiT/BRET saturation binding in live cells; details: HBSS, 90 min, 37 °C; cell-surface receptor; monophasic, lower 7TM site; labelled compound; error SD
T2 construct: full-length receptor; C-terminal Nluc (SMO-Nluc) for miniGsi recruitment; expressed in deltaSMO HEK293A cells

[3] = molecular target: T3, FZD6 (HiBiT-FZD6; FZD6-Nluc) (Homo sapiens, UniProt O60353); assay: NanoBiT/BRET saturation binding in live cells; details: HBSS, 90 min, 37 °C; cell-surface receptor; upper 7TM site; labelled compound; error SD
T3 construct: full-length receptor; expressed in deltaSMO HEK293A cells; UniProt id given for the homology model
T3 sequence (O60353 19-706): T1 sequence (O60353 19-706 P427F) with F409P

[4] = molecular target: T4, SMO (HiBiT-SMO; SMO-Nluc) (Mus musculus, UniProt P56726, F466P); assay: NanoBiT/BRET saturation binding in live cells; details: HBSS, 90 min, 37 °C; cell-surface receptor; labelled compound; error SD
T4 construct: full-length receptor; C-terminal Nluc (SMO-Nluc) for miniGsi recruitment; expressed in deltaSMO HEK293A cells

[5] = molecular target: T3, FZD6 (HiBiT-FZD6; FZD6-Nluc); assay: BRET Venus-mGsi recruitment to receptor-Nluc in deltaSMO HEK293A cells; details: agonist; bell-shaped concentration response; read 5 min after addition

T2 sequence (P56726 33-793): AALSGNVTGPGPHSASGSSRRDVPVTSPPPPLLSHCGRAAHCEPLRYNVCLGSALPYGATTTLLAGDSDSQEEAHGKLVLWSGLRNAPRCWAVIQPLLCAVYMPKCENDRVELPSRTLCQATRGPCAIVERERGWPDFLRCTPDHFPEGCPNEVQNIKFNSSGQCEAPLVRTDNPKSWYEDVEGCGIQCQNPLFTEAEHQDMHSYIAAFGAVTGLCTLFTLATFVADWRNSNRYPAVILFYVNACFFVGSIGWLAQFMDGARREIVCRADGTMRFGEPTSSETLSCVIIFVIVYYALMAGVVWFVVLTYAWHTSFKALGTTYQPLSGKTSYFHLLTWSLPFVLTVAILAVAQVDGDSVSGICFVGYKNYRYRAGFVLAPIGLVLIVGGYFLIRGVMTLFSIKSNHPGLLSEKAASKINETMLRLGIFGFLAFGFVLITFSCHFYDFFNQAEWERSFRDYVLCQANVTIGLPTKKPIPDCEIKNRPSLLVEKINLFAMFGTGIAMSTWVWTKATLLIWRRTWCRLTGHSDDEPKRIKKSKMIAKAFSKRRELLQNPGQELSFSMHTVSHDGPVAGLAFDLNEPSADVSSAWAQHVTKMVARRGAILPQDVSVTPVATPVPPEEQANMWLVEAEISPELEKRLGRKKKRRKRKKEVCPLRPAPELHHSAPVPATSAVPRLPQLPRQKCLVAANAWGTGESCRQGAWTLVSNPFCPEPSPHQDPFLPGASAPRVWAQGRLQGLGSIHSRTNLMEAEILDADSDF
T4 sequence (P56726 33-793 F466P): as the sequence (P56726 33-793) above, with F434P counted along it

Structure (SMILES) | pKd [1] | pKd [2] | pKd [3] | pKd [4] | BRET Venus-mGsi recruitment to receptor-Nluc in deltaSMO HEK293A cells [5]
CC1=C2CC3C(CC=C4C[C@@H](O)CCC43C)C2CCC12O[C@@H]1CC(C)CN(CCNC(=O)CCCCCNC(=O)CCC3=[N+]4C(=Cc5c(C)cc(C)n5[B-]4(F)F)C=C3)C1C2C (some centres unmarked) [BODIPY-cyclopamine] | 6.28 ± 0.20 -log10 M | 6.87 ± 0.13 -log10 M | 6.45 ± 0.23 -log10 M | 5.44 ± 1.02 -log10 M | 
CN[C@H]1CC[C@H](N(Cc2cccc(-c3ccncc3)c2)C(=O)c2sc3ccccc3c2Cl)CC1 [SAG1.3] |  |  |  |  | SAG1.3-induced mGsi recruitment to SMO, while that to FZD6 remained unaffected

— article PMC8225760, “Residue 6.43 defines receptor function in class F GPCRs” (Nature Communications, 2021)
